Reference: patent US20240051935A1, “SUBSTITUTED PYRAZOLO PIPERIDINE CARBOXYLIC ACIDS” (BAYER AKTIENGESELLSCHAFT, priority 2020, published 2024)
Counter-ions that a name gives are not always drawn. Like-named read-outs stand apart in the source and are kept apart here.

What was measured:
[1] = molecular target: T1, recombinant guanylate cyclase reporter cell line (Rattus norvegicus, UniProt P19686+P20595); assay: Effect on a recombinant guanylate cyclase reporter cell line; type: cell-based
T1 construct: expressed in transfected cells; host or cells: recombinant reporter cell line
T1 sequence (P20595 1-619): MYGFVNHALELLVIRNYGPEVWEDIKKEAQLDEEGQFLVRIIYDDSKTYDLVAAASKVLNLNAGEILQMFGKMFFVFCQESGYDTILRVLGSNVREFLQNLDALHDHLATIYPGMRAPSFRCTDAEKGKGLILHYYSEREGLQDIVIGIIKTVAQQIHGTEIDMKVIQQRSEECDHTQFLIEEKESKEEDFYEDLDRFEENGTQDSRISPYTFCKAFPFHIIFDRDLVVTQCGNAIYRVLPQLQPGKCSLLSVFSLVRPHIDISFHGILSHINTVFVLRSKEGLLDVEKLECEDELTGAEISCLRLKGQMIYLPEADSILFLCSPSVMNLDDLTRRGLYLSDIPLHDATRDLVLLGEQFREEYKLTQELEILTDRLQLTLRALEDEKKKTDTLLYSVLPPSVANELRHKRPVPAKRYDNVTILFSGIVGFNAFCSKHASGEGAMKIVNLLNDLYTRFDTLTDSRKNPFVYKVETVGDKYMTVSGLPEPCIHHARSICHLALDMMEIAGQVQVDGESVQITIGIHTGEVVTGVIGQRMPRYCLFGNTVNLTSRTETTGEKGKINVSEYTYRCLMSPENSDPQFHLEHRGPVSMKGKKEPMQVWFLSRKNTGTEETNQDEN
T1 sequence (P19686 1-690): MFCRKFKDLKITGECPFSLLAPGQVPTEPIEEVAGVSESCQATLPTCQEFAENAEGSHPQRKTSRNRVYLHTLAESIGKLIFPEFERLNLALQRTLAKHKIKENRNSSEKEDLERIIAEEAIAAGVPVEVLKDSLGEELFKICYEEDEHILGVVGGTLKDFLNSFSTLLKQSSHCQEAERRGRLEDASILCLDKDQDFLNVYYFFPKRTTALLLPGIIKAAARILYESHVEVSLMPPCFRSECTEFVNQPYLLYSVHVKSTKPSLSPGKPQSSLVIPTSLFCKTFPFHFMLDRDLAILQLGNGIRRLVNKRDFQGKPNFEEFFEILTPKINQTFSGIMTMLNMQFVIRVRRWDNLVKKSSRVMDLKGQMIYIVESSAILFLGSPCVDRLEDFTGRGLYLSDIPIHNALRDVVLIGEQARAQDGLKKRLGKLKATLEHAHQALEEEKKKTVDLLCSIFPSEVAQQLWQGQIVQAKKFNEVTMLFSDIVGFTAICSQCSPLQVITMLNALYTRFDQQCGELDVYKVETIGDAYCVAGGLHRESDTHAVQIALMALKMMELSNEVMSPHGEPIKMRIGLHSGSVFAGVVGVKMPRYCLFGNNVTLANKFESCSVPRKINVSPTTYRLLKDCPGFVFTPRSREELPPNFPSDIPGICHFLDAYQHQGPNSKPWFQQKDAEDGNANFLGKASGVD
Method: The cellular activity of the compounds according to the invention was determined using a recombinant guanylate cyclase reporter cell line, as described in F. Wunder et al., Anal. Biochem. 339, 104-112 (2005).

[2] = Pharmacokinetic parameters following intravenous and oral administration in rats; type: in vivo, male Wistar rats; conditions: in rats as well as in dogs
Method: The pharmacokinetic parameters of the compounds according to the invention were determined in male Wistar rats and/or in female beagles and/or in cynomolgus monkeys and/or in male CD-1 mice. Intravenous administration in the case of mice and rats was carried out by means of a species-specific plasma/DMSO formulation, and in the case of dogs and monkeys by means of a water/PEG400/ethanol formulation. In all species, oral administration of the dissolved substance was performed via gavage, based on a water/PEG400/ethanol formulation.
An internal standard (which may also be a chemically unrelated substance) was added to the samples of the compounds of the invention, calibration samples and qualifiers, and there follows protein precipitation by means of acetonitrile in excess. […] The supernatant was analysed by LC-MS/MS using C18 reversed-phase columns and variable mobile phase mixtures. The substances were quantified via the peak heights or areas from extracted ion chromatograms of specific selected ion monitoring experiments.
The plasma concentration/time plots determined were used to calculate the pharmacokinetic parameters such as AUC,Cmax,t½ (terminal half-life), F (bioavailability), MRT (mean residence time) and CL (clearance), by means of a validated pharmacokinetic calculation program. […]

EC50 [1] | MEC (minimum effective concentration) [1] | MEC (minimum effective concentration) ([1]; hydrochloride) | lower plasma clearance (CLplasma) in comparison to example 174 in WO 2012/058132 [2] | Compound
40 nM | 6.5 nM | – | – | CC(C)CN1CCN(c2ccc(-c3ccc(Cl)cc3N3CCCC(n4ncc(C(=O)O)c4C(F)(F)F)C3)cc2)CC1 (single isomer, unassigned) [Example 1, 1-[1-{4-Chloro-4′-[4-(2-methylpropyl)piperazin-1-yl][1,1′-biphenyl]-2-yl}piperidin-3-yl]-5-(trifluoromethyl)-1H-pyrazole-4-carboxylic acid]
11 nM | – | 2.2 nM | up to 10 times | CC(C)CN1CCN(c2ccc(-c3ccc(Cl)cc3N3CCCC(n4ncc(C(=O)O)c4C(F)(F)F)C3)cc2)CC1 (single isomer, unassigned) [Example 2, 1-[1-{4-chloro-4′-[4-(2-methylpropyl)piperazin-1-yl][1,1′-biphenyl]-2-yl}piperidin-3-yl]-5-(trifluoromethyl)-1H-pyrazole-4-carboxylic acid hydrochloride]
